The source of these data is patent publication US11767330B2, “Citrate salt, pharmaceutical compositions, and methods of making and using the same” (Foghorn Therapeutics Inc., priority 2021, dated 2023).

“Also recorded” adds a separate entry of the source.

The test concerns the target T1, BRD9 (Homo sapiens, UniProt Q9H8M2).
T1 sequence (Q9H8M2 1-597): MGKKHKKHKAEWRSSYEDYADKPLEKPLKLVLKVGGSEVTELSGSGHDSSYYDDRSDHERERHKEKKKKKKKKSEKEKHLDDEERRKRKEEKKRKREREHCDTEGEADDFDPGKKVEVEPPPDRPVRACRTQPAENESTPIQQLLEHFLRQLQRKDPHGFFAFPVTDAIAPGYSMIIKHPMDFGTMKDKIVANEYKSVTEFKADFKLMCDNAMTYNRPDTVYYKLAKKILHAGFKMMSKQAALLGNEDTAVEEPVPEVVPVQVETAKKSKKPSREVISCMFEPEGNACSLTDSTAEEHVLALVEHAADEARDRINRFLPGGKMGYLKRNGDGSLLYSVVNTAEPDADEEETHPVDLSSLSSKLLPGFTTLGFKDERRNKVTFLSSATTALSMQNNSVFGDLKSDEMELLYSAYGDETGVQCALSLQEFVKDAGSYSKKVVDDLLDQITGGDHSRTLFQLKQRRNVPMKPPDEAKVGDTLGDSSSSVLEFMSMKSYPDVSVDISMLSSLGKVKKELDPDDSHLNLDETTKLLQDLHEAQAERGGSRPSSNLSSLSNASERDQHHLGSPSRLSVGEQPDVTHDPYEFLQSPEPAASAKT
The test can be described thus: BRD9 degradation in synovial sarcoma tumor in vivo, western blot (Example 12). Set-up: Tumors were lysed with 1×RIPA lysis buffer; from tissue; host or cells: SYO-1 xenograft tumours in BALB/c Nude mice; species or system mice. The conditions noted are these: 1 mg/kg, i.p., 4 weeks; tumors 8, 72, 168 hours post last dose. As for the experimental part:
Method: Mice were treated with D1, 1 mg/kg, i.p. for 4 weeks. Mice were then euthanized, and tumors were collected at 8 hours, 72 hours, and 168 hours post last dose. Tumors were lysed with 1×RIPA lysis buffer (Boston BioProducts, BP-115D) with protease and phosphatase protein inhibitor (Roche Applied Science #04906837001 & 05892791001). Equal amounts of lysate (30 μg) were loaded in 4-12% Bis-Tris Midi Protein Gels in 1×MOPS buffer; samples ran at 120 V for 120 minutes. Protein was transferred to membrane with TransBlot at 250 mA for 150 minutes, and then membranes were blocked with Odyssey blocking buffer for 1 hour at room temperature. Membranes were hybridized overnight in cold room with primary antibodies. Images acquired using Li—COR imaging system (Li—COR Biotechnology, Lincoln, Nebr.).
(A western blot detects proteins with antibodies after separation by electrophoresis.)

On to `COc1cc(-c2cn(C)c(=O)c3cnc(N4CCC4)cc23)cc(OC)c1CN1CCC(CN2CCC3(CC2)CN(c2ccc4c(c2)C(=O)N(C2CCC(=O)NC2=O)C4)C3)CC1` (racemic) [Compound D1, 3-[6-(7-[[1-([4-[6-(azetidin-1-yl)-2-methyl-1-oxo-2,7-naphthyridin-4-yl]-2,6-dimethoxyphenyl]methyl)piperidin-4-yl]methyl]-2,7-diazaspiro[3.5]nonan-2-yl)-1-oxo-3H-isoindol-2-yl]piperidine-2,6-dione], for which the “BRD9 level in tumor (western blot)” value was “BRD9 inhibition; also recorded: complete degradation of BRD9 target up to 168 hours after dose”.
